Source: paper PMC8399565, “Fluorescence Cross-Correlation Spectroscopy Yields True Affinity and Binding Kinetics of Plasmodium Lactate Transport Inhibitors” (Pharmaceuticals, 2021)
Read-outs that look alike come from different tables or passages of the source.

What was measured:
[1] = biological target: T1, PfFNT wt-GFP (Plasmodium falciparum, UniProt O77389); experiment: Time-resolved FCCS binding kinetics
T1 construct: The DNA of full-length PfFNT from Plasmodium falciparum 3D7 was cloned as a C-terminal GFP fusion; expressed in transfected cells; intact cells for imaging, LMNG-solubilized membranes or lysates for FCCS
T1 sequence (O77389 whole entry, the tested form may be a part): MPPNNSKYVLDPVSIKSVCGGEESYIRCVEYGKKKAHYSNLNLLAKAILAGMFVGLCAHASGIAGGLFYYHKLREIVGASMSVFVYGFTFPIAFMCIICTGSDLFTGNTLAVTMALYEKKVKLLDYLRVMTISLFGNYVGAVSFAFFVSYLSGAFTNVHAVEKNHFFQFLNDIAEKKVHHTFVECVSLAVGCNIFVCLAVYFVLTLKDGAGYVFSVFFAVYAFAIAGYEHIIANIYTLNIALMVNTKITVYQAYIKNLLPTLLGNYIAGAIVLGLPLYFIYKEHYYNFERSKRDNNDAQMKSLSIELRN
Method: To complete our biophysical interaction analysis, we determined the rate constants of both labeled inhibitors to PfFNT wildtype. This is of relevance because inhibitors with similar affinities but different association and dissociation rates can show different activity profiles. […] For measuring the kinetics of direct interactions between PfFNT and the labeled inhibitor molecules, we applied the target at a concentration of 10 nM and chose ligand concentrations that exceeded the number of target molecules by […]. In this way, we ensured that throughout the course of the kinetic measurement, the depletion of free ligands remained insignificant. First, time resolved binding curves were recorded for ligand concentrations of 148, 133, 115, 100, 81, 76, 44, 25 nM (BH296) and 120, 102, 76, 74, 65, 58, 46, 32 nM (BH267.meta), respectively, to obtain kobs values (Figure 5). Then kon and koff values were calculated by linear regression. Both inhibitors bind and dissociate with equal rate constants (Table 3) and are characterized by a rapid association. Equilibrium is reached within less than 1 min at nanomolar inhibitor concentrations. To cross-validate the reliability of our kinetic determinations, we compared the KD values derived from saturation binding assays with affinities deduced from the kinetic rate constants by dividing koff by kon.
Figure 5 Kinetic studies of the fluorescent probes BH296-DY647 and BH267.meta-DY647 with PfFNT-GFP by FCCS. Time resolved measurements of the interactions were carried out to obtain kobs-values. The kobs-values were plotted versus concentrations of the fluorescent probe. The solid line represents the best linear regression, and kon and koff of both fluorescent probes were estimated from the slope and y-intercept, respectively. kon and koff values of BH296-DY647 and BH267.meta-DY647 are summarized in Table 3.
(§1) FCCS measurements were conducted in 384-well glass-bottom plates (cat. no PS96B-G175, SWISSCI, Switzerland) using an Insight plate reader (Evotec Technologies, Germany) fitted with a U-Apo300 40x water immersion lens, NA 1.15 (Olympus, Japan). The 488 nm laser line of an argon-ion laser and the light of a 633 nm helium–neon laser were used for excitation. Fluorescence fluctuations were recorded for 8 s with 12 repetitions and analyzed afterward using FCS+plus Analyze 1.1P (Evotec technologies, Version 1.2.5g). FCCS analysis was carried out as described previously. Briefly, for measuring the dissociation constant (KD), a titration series of 12 dilutions was prepared, where the concentration of the lysates obtained from HEK cells expressing GFP-fusions of PfFNT WT and G107S was kept constant, and the concentration of the labeled binding partner (BH296-DY647 and BH267.meta-DY647, respectively) was varied. The IC50 values were calculated by plotting the concentration from the dual labeled complex against the concentration of the competitor titrated over a concentration range from 10 µM to 10 pM. Samples were incubated for 1 h at room temperature prior to FCCS measurements to allow the formation of drug target complexes. From the resulting IC50 values, the Ki values were obtained by application of the Cheng Prusoff equation [17]. To assess the rate constants, time-resolved measurements were carried out at different concentrations of the labeled ligand. […] All KD and IC50 values, as well as kinetic parameters, were determined from three independently repeated experiments. The figures show one representative measurement; however, the calculated KD, Ki, kon and koff values are presented as an average of the three measurements ± SD. Error bars denote ± SEM.

[2] = biological target: T2, PfFNT G107S-GFP (Plasmodium falciparum, UniProt O77389, G107S); experiment: FCCS equilibrium saturation binding to solubilized PfFNT G107S mutant
T2 construct: The DNA of full-length PfFNT from Plasmodium falciparum 3D7 was cloned as a C-terminal GFP fusion; expressed in transfected cells; intact cells for imaging, LMNG-solubilized membranes for FCCS
T2 sequence (O77389 whole entry G107S, the tested form may be a part): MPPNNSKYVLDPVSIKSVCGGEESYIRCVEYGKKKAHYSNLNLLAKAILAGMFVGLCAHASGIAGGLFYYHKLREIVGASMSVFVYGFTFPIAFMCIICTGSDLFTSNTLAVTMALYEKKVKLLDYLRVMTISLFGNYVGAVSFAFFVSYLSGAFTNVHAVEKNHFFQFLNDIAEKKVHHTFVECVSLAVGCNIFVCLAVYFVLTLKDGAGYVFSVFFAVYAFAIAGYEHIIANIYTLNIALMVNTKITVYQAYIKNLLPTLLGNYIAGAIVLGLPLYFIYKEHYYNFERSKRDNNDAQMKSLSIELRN
Method: (§2) Next, we determined inhibitor binding affinities for both PfFNT and its G107S mutant. Solubilized cell membranes containing PfFNT-GFP at a concentration of 10 nM were incubated for 1 h at ambient temperature with increasing concentrations of labeled inhibitor molecules to obtain saturation binding curves and to calculate the dissociation constant (KD) of the interactions. Equilibrium binding experiments were pipetted in biological triplicates and carried out and analyzed as described in Antoine et al..
We next performed equilibrium saturation binding assays to assess the binding of both tracers to the mutant PfFNT G107S.
(§3) A cell pellet was resuspended in 1 mL of ice-cold TBS (50 mM Tris-HCl (pH 7.4) and 150 mM NaCl) supplemented with cOmplete™ Protease Inhibitor Cocktail (cat. no 11697498001, Roche, Switzerland) and broken by sonication on ice, using an Ultrasonic homogenizer SONOPULS HD 2070 (Bandelin, Germany). Cell debris was removed by centrifugation for 5 min at 1100× g at 4 °C, and membranes were harvested from the cleared lysate by subsequent centrifugation at 21,000× g. The resulting pellet containing cellular membranes was lysed using a Dounce homogenizer. The receptor was solubilized by incubation in 1% LMNG (cat. no NG310, Anatrace, USA) or in another detergent (DDM, DM, CHAPS, CHS, LDAO) when conducting tests to determine the best solubilization conditions. The insolubilized membrane material was removed by centrifugation for 1 h at 21,000× g at 4 °C, and the supernatant was collected and directly subjected to FCCS analysis or stored at −80 °C.
as §1

[3] = biological target: T1, PfFNT wt-GFP; experiment: FCCS equilibrium saturation binding to solubilized PfFNT wildtype; conditions: for Active Receptor (%): fraction of PfFNT-GFP involved in binding at saturation; for obtained concentration of complexes in saturation binding: same sample of solubilized membranes for both tracers
Method: A total of 20 µL of solubilized membranes from HEK cells expressing PfFNT wildtype or G107S were transferred to a glass-bottom 384-well microtiter plate and analyzed for expression levels via GFP fluorescence intensity as well as diffusion times. This yielded a PfFNT protein concentration of 10 nM after membrane preparation and solubilization. The average dwell time was determined to 373 µs, which is in good agreement with membrane proteins of equal size. The signal fluctuations could be fitted to a 1-component diffusion model, indicating homogeneously monodisperse proteins (Figure S2).
as §2, §3, §1

[4] = fluorescent probe titrated against solubilized PfFNT G107S-GFP

## CCN1/C(=C/C=C/C=C/C2=[N+](CC)c3ccc(S(=O)(=O)O)cc3C2(C)CCCC(=O)NCCOCCOCCOCCOCCC(=O)NCCCOc2ccc(C(=O)/C=C(\O)C(F)(F)C(F)(F)F)cn2)C(C)(C)c2cc(S(=O)(=O)[O-])ccc21 (stereo not shown) [BH267.meta-DY647]
[1]
  Kd: 112 ± 5 nM
  koff: 0.0297 s⁻¹
  kon: 268000 M⁻¹ s⁻¹
[2]
  Kd: 405 nM
[2]; fraction of PfFNT G107S-GFP involved in binding at saturation
  Active Receptor (%): n.d. 100%
[3]
  Kd: 72 nM
  Active Receptor (%): 100%

## O=C(/C=C(\O)C(F)(F)C(F)(F)F)c1cccnc1 [BH267.meta]
[1]; koff divided by kon, read-out: KD (Kinetics)
  Kd: 112 nM
[2]; fluorescent probe titrated against solubilized PfFNT G107S-GFP, read-out: KD (equilibrium saturation binding)
  Kd: 405 nM
[3]; fluorescent probe titrated against 10 nM PfFNT-GFP, 1% LMNG, 1 h ambient temperature, read-out: KD (equilibrium saturation binding)
  Kd: 72 nM
[3]
  Active Receptor (%): 100%
  obtained concentration of complexes in saturation binding: 6 nM

## O=C(C=C(O)C(F)(F)C(F)(F)F)c1ccc(O)cc1 [BH296, 4,4,5,5,5-pentafluoro-3-hydroxy-1-(4-hydroxyphenyl)pent-2-en-1-one]
[1]
  Kd: 113 nM
[2]; [4]
  KD (equilibrium saturation binding): failed to bind within detection limits
[3]
  Kd: 67 nM
  obtained concentration of complexes in saturation binding: 3 nM

## CCN1/C(=C/C=C/C=C/C2=[N+](CC)c3ccc(S(=O)(=O)O)cc3C2(C)CCCC(=O)NCCOCCOCCOCCOCCC(=O)NCCCOc2ccc(C(=O)/C=C(\O)C(F)(F)C(F)(F)F)cc2)C(C)(C)c2cc(S(=O)(=O)[O-])ccc21 (stereo not shown) [BH296-DY647]
[1]
  Kd: 113 ± 2 nM
  koff: 0.0311 s⁻¹
  kon: 278000 M⁻¹ s⁻¹
[2]
  Kd: > 2000 nM
[2]; [4]
  KD (equilibrium saturation binding): no affinity above background
[3]
  Kd: 67 ± 6 nM
